Among the data in ChEMBL document CHEMBL1154158, “Synthesis and antitumoral activity of novel thiazolobenzotriazole, thiazoloindolo[3,2-c]quinoline and quinolinoquinoline derivatives” (Eur J Med Chem, 2009) are inhibition, ΔTm and IC50 values, retold here.

The source made the active and inactive calls. The rule behind the calls is not given here.

Test [1] concerns MCF7. Description: Growth inhibition of human MCF7 cells at 10 uM after 72 hrs by MTT assay. The class given is functional. The note with it: MCF7, 72 h. For orientation: Tetrazolium dyes change colour on reduction, which living cells bring about.
In test [2] the test system is MDA-MB-231. Description: Growth inhibition of human MDA-MB-231 cells at 10 uM after 72 hrs by MTT assay. The note with it: MDA-MB-231, 72 h. The class given is functional.
For test [3], the system named is Calf thymus DNA. The test can be described thus: Binding affinity to calf thymus DNA assessed as change in melting temperature at [compound]/[polynucleotide] ratio of 1. The format is nucleic-acid assay. The note with it: Bos taurus.
Test [4] concerns HL-60. The test can be described thus: Cytotoxicity against human HL60 cells after 72 hrs. The class given is functional, cell-based. The note with it: HL-60, 72 h.
The subject of test [5] is HL-60. The test can be described thus: Cytotoxicity against human mitoxantrone-resistant HL60 cells after 72 hrs. The class given is functional, cell-based. The settings on record: HL-60, 72 h.
Test [6] deals with Nucleic Acid. Description: Binding affinity to poly(dAT)2 assessed as change in melting temperature at [compound]/[polynucleotide] ratio of 1 at pH 7.1. The class given is nucleic-acid assay.
Test [7] concerns the target DNA topoisomerase 2-alpha (Homo sapiens) (UniProt P11388). The test can be described thus: Inhibition of human topoisomerase 2-mediated DNA cleavage.

Sequence of DNA topoisomerase 2-alpha (Homo sapiens) (P11388 whole entry): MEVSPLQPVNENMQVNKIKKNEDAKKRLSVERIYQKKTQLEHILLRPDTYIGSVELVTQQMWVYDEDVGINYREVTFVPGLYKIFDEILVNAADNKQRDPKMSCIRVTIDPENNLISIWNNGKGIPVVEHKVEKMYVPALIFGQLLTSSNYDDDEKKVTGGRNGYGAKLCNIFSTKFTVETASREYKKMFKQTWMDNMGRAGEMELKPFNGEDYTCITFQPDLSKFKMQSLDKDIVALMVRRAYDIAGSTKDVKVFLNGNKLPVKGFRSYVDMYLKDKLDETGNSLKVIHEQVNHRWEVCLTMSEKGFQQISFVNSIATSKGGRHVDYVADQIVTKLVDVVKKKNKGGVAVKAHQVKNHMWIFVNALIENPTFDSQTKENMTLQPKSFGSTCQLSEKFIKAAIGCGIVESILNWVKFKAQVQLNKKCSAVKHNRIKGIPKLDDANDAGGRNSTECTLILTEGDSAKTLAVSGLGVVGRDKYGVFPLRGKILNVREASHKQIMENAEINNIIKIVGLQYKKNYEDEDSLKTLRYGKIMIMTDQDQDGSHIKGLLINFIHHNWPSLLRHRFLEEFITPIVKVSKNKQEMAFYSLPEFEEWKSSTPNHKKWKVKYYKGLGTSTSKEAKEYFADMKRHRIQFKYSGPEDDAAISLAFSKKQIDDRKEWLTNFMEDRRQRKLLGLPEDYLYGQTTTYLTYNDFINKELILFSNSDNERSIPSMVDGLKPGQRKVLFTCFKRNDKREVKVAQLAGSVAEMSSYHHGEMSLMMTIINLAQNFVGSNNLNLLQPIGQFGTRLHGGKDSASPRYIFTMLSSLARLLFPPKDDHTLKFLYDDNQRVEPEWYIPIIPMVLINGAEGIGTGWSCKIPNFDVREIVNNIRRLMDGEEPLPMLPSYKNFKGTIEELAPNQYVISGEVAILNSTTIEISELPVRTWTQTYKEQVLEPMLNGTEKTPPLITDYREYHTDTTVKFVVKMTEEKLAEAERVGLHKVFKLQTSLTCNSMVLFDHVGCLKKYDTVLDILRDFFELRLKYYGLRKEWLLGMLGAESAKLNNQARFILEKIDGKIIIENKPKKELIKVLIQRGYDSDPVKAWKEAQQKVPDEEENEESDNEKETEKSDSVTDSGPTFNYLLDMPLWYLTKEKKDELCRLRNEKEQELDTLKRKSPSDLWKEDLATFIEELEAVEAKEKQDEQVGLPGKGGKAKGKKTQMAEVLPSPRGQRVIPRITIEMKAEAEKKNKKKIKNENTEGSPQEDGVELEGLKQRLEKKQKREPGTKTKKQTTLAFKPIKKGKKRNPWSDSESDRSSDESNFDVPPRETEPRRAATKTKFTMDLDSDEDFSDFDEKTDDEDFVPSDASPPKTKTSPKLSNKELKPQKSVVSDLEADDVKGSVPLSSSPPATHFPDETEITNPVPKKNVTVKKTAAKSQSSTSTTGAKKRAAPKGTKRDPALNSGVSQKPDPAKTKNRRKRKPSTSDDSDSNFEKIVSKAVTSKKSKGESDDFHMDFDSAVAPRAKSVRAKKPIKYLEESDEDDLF

By inhibition is commonly meant the drop in the measured response relative to a control, in per cent. As to `Cc1cc(-n2nnc3c4sc(C5=NCCN5)nc4ccc32)c2ccccc2n1`, the inhibition at 10 µM in test [1] is 98.9%; in test [2], 97.4%.
Regarding `c1cc(-n2nnc3c4sc(C5=NCCN5)nc4ccc32)ccn1`, the inhibition at 10 µM in test [1] amounted to 51.1%; in test [2] it was 56.4%.
With `Cc1cc(-n2nnc3c4sc(C#N)nc4ccc32)c2ccccc2n1`, the inhibition at 10 µM in test [1] is 87.2%; in test [2], 91.9%.
Regarding `c1ccc2c(-n3nnc4c5sc(C6=NCCN6)nc5ccc43)ccnc2c1`, the inhibition at 10 µM worked out at 95.6% in test [1] and 97.3% in test [2].
The term ΔTm denotes the shift of the melting midpoint relative to a reference. Broadly, the IC50 is the concentration needed to halve the response being measured. High values mean weaker potency, low ones greater potency. Turning to `CC(=O)Nc1ccc2c(c1)-c1cccc3nccc(c13)N2`, the ΔTm stood at 14.5 °C in test [3] and 24.5 °C in test [6]. The values for the IC50 in test [4] and in test [5] were 4.6 µM and 5.5 µM, respectively.
On to `c1ccc2c(c1)ncc1c2[nH]c2ccc3ncsc3c21`, for which the thermal shift (ΔTm) turned out to be 7.2 °C in test [3] and 12.7 °C in test [6]. The IC50 in test [4] turned out to be 17.2 µM; in test [5], 22.6 µM.
On to `CC[C@@]1(O)C(=O)OCc2c1cc1n(c2=O)Cc2cc3ccccc3nc2-1`, for which the inhibition result in test [7] is “inactive”.
With `N#Cc1nc2ccc3c(nnn3-c3ccc4ccccc4n3)c2s1`, the inhibition at 10 µM worked out at 30.4% in test [1] and 19.8% in test [2].
With `N#Cc1nc2ccc3c(nnn3-c3ccnc4ccccc34)c2s1`, the inhibition at 10 µM in test [1] stood at 34.9%; in test [2], 32.4%.
In the case of `Nc1ccc2[nH]c3c4ccccc4ncc3c2c1`, the results for the inhibition at 10 µM in test [1] and in test [2] were 73.5% and 85.7%, respectively.
With `N#Cc1nc2ccc3c(nnn3-c3ccncc3)c2s1`, the inhibition at 10 µM was 95.5% in test [1] and 87.4% in test [2].
With `c1ccc2nc(-n3nnc4c5sc(C6=NCCN6)nc5ccc43)ccc2c1`, the inhibition at 10 µM was found to be 41.3% in test [1] and 28.5% in test [2].
